Data on 3 molecules can be found in patent publication US11582970B2, “2-aminoimidazole-phenyl derivatives useful for controlling microbial growth” (NORTH CAROLINA STATE UNIVERSITY, priority 2017, dated 2023).

The structures appear in SMILES notation.

Experiment in all cases: MIC of meropenem in combination with compound, CDC carbapenem resistant strain
Assay type in all cases: cell-based

Assay [1] has as its system K. pneumoniae (Kp) AR# 98. How it is done:
(§1) EXAMPLE 2: Six compounds were assessed for their activity in combination with meropenem against carbapenem resistant strains of A. baumannii (Ab), K. pneumoniae (Kp), and E. coli acquired from the Center for Disease Control (CDC). AR #—assigned AR-BANK number from the CDC.

A further assay deals with A. baumannii (Ab) AR# 83. The method, then:
as §1

In assay [2] the test system is K. pneumoniae (Kp) AR# 40. How it is done:
as §1

For the next assay, the system named is A. baumannii (Ab) AR# 56. The method, then: as §1
Assay [3] relates to K. pneumoniae (Kp) AR# 68. The method, then: as §1
The next assay has as its system A. baumannii (Ab) AR# 52. How it is done:
as §1

The subject of the next assay is E. coli AR# 48. The method, then: as §1
Assay [4] concerns K. pneumoniae (Kp) AR# 41. The method, then: as §1
The subject of a further assay is A. baumannii (Ab) AR# 36. How it is done:
as §1

The test system of a further assay is A. baumannii (Ab) AR# 45. The method, then: as §1
Another assay relates to A. baumannii (Ab) AR# 63. How it is done:
as §1

Another assay has as its system A. baumannii (Ab) AR# 70. How it is done:
as §1

Another assay relates to A. baumannii (Ab) AR# 35. The method, then: as §1
The subject of the next assay is A. baumannii (Ab) AR# 88. The method, then: as §1
A further assay relates to E. coli AR# 55. How it is done: as §1
A further assay relates to A. baumannii (Ab) AR# 37. How it is done:
as §1

In another assay the test system is A. baumannii (Ab) AR# 33. The method, then: as §1
[5] abbreviates: 64 μM of 2-amino imidazole compound.
Setting [6] is: 15 μM of 2-amino imidazole compound.
[7] abbreviates: 30 μM of 2-amino imidazole compound.
The mark [8] stands for this setting: 7 μM of 2-amino imidazole compound.
[9] abbreviates: 4 μM of 2-amino imidazole compound.
The mark [10] stands for this setting: 2 μM of 2-amino imidazole compound.

With `CCCc1ccc(NC(=O)Nc2cccc(-c3cnc(N)[nH]3)c2)cc1` [Compound 2, 1-(3-(2-amino-1H-imidazol-5-yl)phenyl)-3-(4-propylphenyl)urea], the “Minimum Inhibitory Concentration of Meropenem” value in [1] (setting [5]) was 64 (64) μg/mL; with A. baumannii (Ab) AR# 83 (setting [6]), 96 (15) μg/mL; in assay [2] (setting [5]) it was 1024 (64) μg/mL; in the assay on A. baumannii (Ab) AR# 56 (setting [6]), 8 (15) μg/mL; in assay [3] (32 μM of 2-amino imidazole compound), 256 (32) μg/mL; in the assay with A. baumannii (Ab) AR# 52 (setting [6]) it was 1.5 (15) μg/mL. Also, the “Minimum Inhibitory Concentration of Meropenem” value in the assay with E. coli AR# 48 (setting [5]) is recorded as 128 (64) μg/mL; in assay [4] (setting [5]), 32 (64) μg/mL; with A. baumannii (Ab) AR# 36 (setting [7]) it was 4 (30) μg/mL; in the assay with A. baumannii (Ab) AR# 45 (setting [6]), 1.5 (15) μg/mL; in the assay on A. baumannii (Ab) AR# 63 (setting [7]), 8 (30) μg/mL; in the assay with A. baumannii (Ab) AR# 70 (setting [8]) it was 2 (7) μg/mL. The “Minimum Inhibitory Concentration of Meropenem” value is 16 (15) μg/mL in the assay with A. baumannii (Ab) AR# 35 (setting [6]); 128 (15) μg/mL in the assay with A. baumannii (Ab) AR# 88 (setting [6]); 64 (64) μg/mL in the assay on E. coli AR# 55 (setting [5]); 64 (15) μg/mL in the assay on A. baumannii (Ab) AR# 37 (setting [6]); 32 (15) μg/mL in the assay on A. baumannii (Ab) AR# 33 (setting [6]).

Consider `Nc1ncc(-c2cccc(NC(=O)Nc3cc(Br)cc(Br)c3)c2)[nH]1` [Compound 7, 1-(3-(2-amino-1H-imidazol-5-yl)phenyl)-3-(3,5-dibromophenyl)urea], for which the “Minimum Inhibitory Concentration of Meropenem” value is recorded as 64 (7) μg/mL in assay [1] (setting [8]); 24 (15) μg/mL in the assay on A. baumannii (Ab) AR# 83 (setting [6]); 64 (15) μg/mL in assay [2] (setting [6]); 8 (15) μg/mL in the assay on A. baumannii (Ab) AR# 56 (setting [6]); 128 (7) μg/mL in assay [3] (setting [8]); 2 (4) μg/mL in the assay with A. baumannii (Ab) AR# 52 (setting [9]). Further, the “Minimum Inhibitory Concentration of Meropenem” value with E. coli AR# 48 (setting [6]) was 64 (15) μg/mL; in assay [4] (setting [6]), 8 (15) μg/mL; in the assay on A. baumannii (Ab) AR# 36 (setting [8]), 8 (7) μg/mL; in the assay on A. baumannii (Ab) AR# 45 (setting [6]), 1 (15) μg/mL; with A. baumannii (Ab) AR# 63 (setting [9]) it was 32 (4) μg/mL; in the assay with A. baumannii (Ab) AR# 70 (setting [10]) it was 4 (2) μg/mL. Moreover, the “Minimum Inhibitory Concentration of Meropenem” value is listed as 32 (30) μg/mL in the assay on A. baumannii (Ab) AR# 35 (setting [7]); 64 (15) μg/mL in the assay with A. baumannii (Ab) AR# 88 (setting [6]); 64 (15) μg/mL in the assay with E. coli AR# 55 (setting [6]); 32 (7) μg/mL in the assay on A. baumannii (Ab) AR# 37 (setting [8]); 16 (15) μg/mL in the assay with A. baumannii (Ab) AR# 33 (setting [6]).

Consider `Cc1nc(N)[nH]c1-c1cccc(NC(=O)Nc2ccc(C(F)(F)F)c(Cl)c2)c1` [Compound 68, 1-(3-(2-amino-4-methyl-1H-imidazol-5-yl)phenyl)-3-(3-chloro-4-(trifluoromethyl)phenyl)urea], for which the “Minimum Inhibitory Concentration of Meropenem” value in assay [1] (setting [8]) is listed as 32 (7) μg/mL; in the assay with A. baumannii (Ab) AR# 83 (setting [9]), 64 (4) μg/mL; in assay [2] (setting [8]) it was 64 (7) μg/mL; in the assay on A. baumannii (Ab) AR# 56 (setting [9]), 4 (4) μg/mL; in assay [3] (setting [8]), 128 (7) μg/mL; in the assay with A. baumannii (Ab) AR# 52 (setting [9]), 4 (4) μg/mL. Further, the “Minimum Inhibitory Concentration of Meropenem” value was 128 (4) μg/mL in the assay on E. coli AR# 48 (setting [9]); 64 (4) μg/mL in assay [4] (setting [9]); 48 (4) μg/mL in the assay with A. baumannii (Ab) AR# 36 (setting [9]); 3 (4) μg/mL in the assay with A. baumannii (Ab) AR# 45 (setting [9]); 128 (2) μg/mL in the assay with A. baumannii (Ab) AR# 63 (setting [10]); 1 (4) μg/mL in the assay on A. baumannii (Ab) AR# 70 (setting [9]). The “Minimum Inhibitory Concentration of Meropenem” value in the assay on A. baumannii (Ab) AR# 35 (setting [9]), in the assay with A. baumannii (Ab) AR# 88 (setting [9]), with E. coli AR# 55 (setting [9]), in the assay on A. baumannii (Ab) AR# 37 (setting [9]) and in the assay on A. baumannii (Ab) AR# 33 (setting [9]) was 64 (4) μg/mL throughout.
